Data on six compounds can be found in ChEMBL document CHEMBL1201862, “PubChem BioAssay data set” (2004).

Usually IC50 stands for the concentration at which inhibition is half-maximal. The EC50 is the concentration giving half of the maximal effect.

One assay has as its target Nonstructural protein 1 (Influenza A virus, UniProt Q194T2). It is filed as functional, Influenza A virus (A/California/07/2009(H1N1)).
Assay [1] deals with T1, Rac GTPase-activating protein 1 (Homo sapiens, UniProt Q9H0H5).
T1 sequence (Q9H0H5 whole entry): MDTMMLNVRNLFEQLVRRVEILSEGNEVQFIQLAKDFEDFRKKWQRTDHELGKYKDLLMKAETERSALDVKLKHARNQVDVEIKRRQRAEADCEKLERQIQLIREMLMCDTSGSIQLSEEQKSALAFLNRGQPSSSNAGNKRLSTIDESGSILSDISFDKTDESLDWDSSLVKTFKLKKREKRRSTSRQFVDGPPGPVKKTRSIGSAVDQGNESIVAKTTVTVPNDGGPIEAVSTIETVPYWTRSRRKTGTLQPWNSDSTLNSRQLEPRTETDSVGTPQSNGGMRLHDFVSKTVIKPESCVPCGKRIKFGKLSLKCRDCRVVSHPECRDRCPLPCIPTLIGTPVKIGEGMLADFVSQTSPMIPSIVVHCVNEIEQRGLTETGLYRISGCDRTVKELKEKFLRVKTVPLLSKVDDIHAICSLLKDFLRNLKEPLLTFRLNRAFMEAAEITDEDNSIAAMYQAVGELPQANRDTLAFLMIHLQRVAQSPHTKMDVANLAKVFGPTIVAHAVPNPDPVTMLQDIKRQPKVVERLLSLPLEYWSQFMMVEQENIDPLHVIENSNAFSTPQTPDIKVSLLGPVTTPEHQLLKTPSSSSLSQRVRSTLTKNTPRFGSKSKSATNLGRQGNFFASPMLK
Nature of the assay: blockers of MgcRacGAP-driven Rac1 GTP hydrolysis – biochemical, ADP Hunter fluorescence, primary and confirmatory, confirmation (AID 624330). It is filed as functional.

Another assay has as its target T2, Hexokinase-1 (Homo sapiens, UniProt P19367).
T2 sequence (P19367 whole entry): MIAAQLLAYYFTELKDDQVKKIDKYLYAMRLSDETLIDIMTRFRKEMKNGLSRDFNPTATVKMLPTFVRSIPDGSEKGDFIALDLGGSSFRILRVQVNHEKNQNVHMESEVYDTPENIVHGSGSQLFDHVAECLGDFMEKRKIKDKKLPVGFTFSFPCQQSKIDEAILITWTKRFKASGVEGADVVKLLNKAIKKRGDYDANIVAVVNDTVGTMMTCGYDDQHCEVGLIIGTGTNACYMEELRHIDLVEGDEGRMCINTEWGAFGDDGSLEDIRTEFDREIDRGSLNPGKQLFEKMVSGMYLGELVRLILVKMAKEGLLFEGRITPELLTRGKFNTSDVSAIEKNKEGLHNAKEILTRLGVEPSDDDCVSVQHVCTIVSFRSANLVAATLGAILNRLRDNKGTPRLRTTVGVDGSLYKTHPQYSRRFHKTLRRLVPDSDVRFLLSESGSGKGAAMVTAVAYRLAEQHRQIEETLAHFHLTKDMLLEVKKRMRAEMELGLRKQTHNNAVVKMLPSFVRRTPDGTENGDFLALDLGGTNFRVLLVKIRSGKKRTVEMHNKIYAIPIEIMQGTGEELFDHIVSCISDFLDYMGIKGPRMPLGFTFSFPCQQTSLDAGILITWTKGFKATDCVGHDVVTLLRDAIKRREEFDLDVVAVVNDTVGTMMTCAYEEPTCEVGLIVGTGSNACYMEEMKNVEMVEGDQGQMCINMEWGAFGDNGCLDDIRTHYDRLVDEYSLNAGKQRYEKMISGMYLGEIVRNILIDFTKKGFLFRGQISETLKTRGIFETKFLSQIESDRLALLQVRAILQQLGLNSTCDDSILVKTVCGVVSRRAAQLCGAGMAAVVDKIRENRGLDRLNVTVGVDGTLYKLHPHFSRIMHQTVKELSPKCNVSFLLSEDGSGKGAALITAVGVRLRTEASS
Put plainly: HK1 enzyme activation by HKDC1 hits – biochemical, selectivity assay for HKDC1 activator project, dose response (AID 504762). It counts as functional.

The target of a further assay is T3, Hexokinase HKDC1 (Homo sapiens, UniProt Q2TB90).
T3 sequence (Q2TB90 whole entry): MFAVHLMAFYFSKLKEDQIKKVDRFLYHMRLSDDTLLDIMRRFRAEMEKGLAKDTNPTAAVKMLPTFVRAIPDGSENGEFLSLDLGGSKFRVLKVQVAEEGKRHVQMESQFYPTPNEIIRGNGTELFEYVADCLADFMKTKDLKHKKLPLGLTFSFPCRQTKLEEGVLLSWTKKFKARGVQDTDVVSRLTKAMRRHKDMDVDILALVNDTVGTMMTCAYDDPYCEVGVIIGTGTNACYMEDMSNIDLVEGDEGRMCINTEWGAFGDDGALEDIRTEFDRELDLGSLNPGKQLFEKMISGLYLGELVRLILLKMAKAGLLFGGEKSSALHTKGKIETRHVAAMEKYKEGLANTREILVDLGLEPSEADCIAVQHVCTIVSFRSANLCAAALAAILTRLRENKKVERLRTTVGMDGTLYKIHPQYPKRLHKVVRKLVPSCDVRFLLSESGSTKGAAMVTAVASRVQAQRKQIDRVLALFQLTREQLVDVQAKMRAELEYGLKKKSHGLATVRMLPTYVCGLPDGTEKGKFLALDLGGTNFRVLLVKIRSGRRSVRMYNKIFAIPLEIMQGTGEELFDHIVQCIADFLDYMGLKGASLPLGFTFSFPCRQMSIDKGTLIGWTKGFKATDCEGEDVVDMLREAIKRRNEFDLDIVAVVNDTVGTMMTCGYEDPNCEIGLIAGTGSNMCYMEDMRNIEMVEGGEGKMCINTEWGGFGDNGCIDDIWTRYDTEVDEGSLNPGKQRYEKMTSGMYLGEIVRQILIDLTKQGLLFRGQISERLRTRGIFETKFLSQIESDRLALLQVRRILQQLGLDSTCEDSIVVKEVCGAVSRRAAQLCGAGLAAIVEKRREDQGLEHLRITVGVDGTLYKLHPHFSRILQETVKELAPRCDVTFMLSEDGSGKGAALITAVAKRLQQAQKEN
Nature of the assay: inhibition of HKDC1 glucose phosphorylation – biochemical, W721R variant, dose response (AID 504729). It is filed as functional.

Assay [2] has as its target T4, Coagulation factor XII (Homo sapiens, UniProt P00748).
T4 sequence (P00748 whole entry): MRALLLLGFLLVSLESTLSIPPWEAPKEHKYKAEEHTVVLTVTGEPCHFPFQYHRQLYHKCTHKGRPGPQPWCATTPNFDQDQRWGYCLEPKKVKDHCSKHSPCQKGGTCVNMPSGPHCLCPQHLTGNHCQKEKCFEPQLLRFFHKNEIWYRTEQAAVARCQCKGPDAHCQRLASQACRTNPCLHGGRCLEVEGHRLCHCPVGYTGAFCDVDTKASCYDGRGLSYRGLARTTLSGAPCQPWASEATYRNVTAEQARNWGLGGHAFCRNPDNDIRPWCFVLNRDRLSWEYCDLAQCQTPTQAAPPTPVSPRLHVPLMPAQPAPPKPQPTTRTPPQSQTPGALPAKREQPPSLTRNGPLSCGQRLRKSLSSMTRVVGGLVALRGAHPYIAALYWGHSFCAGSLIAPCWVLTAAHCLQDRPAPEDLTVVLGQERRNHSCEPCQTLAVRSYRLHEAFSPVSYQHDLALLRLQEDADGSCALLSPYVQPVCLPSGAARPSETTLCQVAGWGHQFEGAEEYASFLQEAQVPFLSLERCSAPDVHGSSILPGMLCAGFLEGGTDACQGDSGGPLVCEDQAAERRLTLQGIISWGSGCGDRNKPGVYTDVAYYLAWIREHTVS
Nature of the assay: activated coagulation factor XII inhibitor potency, concentration-effect curve, cell-free (AID 716). It is filed as functional.

The target of assay [3] is T5, Ubiquitin-conjugating enzyme E2 N (Homo sapiens, UniProt P61088).
T5 sequence (P61088 whole entry): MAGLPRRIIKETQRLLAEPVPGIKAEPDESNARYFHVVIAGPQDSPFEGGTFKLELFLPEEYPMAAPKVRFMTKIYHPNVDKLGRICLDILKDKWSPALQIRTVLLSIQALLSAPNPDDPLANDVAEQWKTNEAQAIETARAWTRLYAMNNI
It is filed as functional.

For another assay, the target named is T6, Bcl-2-related protein A1 (Mus musculus, UniProt Q07440).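 Further: confirmatory dose–response counterscreen on Bfl-1, used to check hits from a UBC13 polyubiquitin inhibitor campaign.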
T6 sequence (Q07440 whole entry): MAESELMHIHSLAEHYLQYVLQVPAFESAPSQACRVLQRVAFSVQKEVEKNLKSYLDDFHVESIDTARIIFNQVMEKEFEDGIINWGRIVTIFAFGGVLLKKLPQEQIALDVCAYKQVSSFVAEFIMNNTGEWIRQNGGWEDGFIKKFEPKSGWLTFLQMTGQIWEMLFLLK
It counts as functional.

Assay [4] concerns the target T5, Ubiquitin-conjugating enzyme E2 N. It is filed as functional. The source holds these as a separate data set.
Assay [5] concerns the target T7, E3 ubiquitin-protein ligase XIAP (Homo sapiens, UniProt P98170). Nature of the assay: Counter Screen using XIAP-Bir3 for Chemical Antagonists of Bir1/2 domains of IAP-family anti-apoptotic proteins. [Related pubchem assays (depositor defined):AID1018, AID1449, AID1514, AID1638, AID1749, AID1750, AID488957, AID488963]. A general note: The purpose of a counterscreen is to sort out artefacts and off-target activity.

Assay [6] addresses T7, E3 ubiquitin-protein ligase XIAP. Nature of the assay: small molecules displacing peptide from XIAP – biochemical, IAP family, fluorescence polarization (AID 1018). It counts as functional. For orientation: Polarisation of emitted light reports the rotation of a fluorescent probe.
For assay [7], the target named is T4, Coagulation factor XII. Nature of the assay: Factor XIIa Dose Response Confirmation from Single Well HTS. [Related pubchem assays (depositor defined):AID701]. It is filed as functional.
For assay [8], the target named is T8, G-protein coupled receptor 55 (Homo sapiens, UniProt Q9Y2T6). Nature of the assay: inhibition of LPI-stimulated GPR55 beta-arrestin translocation – imaging, U2OS, beta-arrestin-GFP, LPI agonist, primary screen (AID 2013).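 Further: antagonist potency measured as reduced agonist-driven arrestin aggregation.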 It is filed as functional.
The target in assay [9] is T9, Cannabinoid receptor 1 (Homo sapiens, UniProt P21554). Put plainly: SAR analysis of agonists of the Cannabinoid Receptor 1 using an Image-Based Assay - Set 2. [Related pubchem assays (depositor defined):AID2013, AID2026]. It counts as functional.
For assay [10], the target named is T10, G-protein coupled receptor 35 (Homo sapiens, UniProt Q9HC97). Put plainly: SAR analysis of Agonists of the GPR35 Receptor using an Image-Based Assay - Set 2. [Related pubchem assays (depositor defined):AID2013, AID2026]. It counts as functional.
In assay [11] the target is T8, G-protein coupled receptor 55. Nature of the assay: blockade of LPI-induced GPR55 arrestin translocation – imaging, U2OS, beta-arrestin-GFP, LPI agonist, set 2, SAR follow-up (AID 2820). It counts as functional.
Assay [12] deals with T10, G-protein coupled receptor 35. Nature of the assay: SAR analysis of Antagonists of the GPR35 Receptor using an Image-Based Assay - Set 3. [Related pubchem assays (depositor defined):AID2013, AID2026]. It is filed as functional.
In assay [13] the target is T11, Cannabinoid receptor 2 (Homo sapiens, UniProt P34972). Nature of the assay: SAR analysis of agonists of the Cannabinoid Receptor 2 using an Image-Based Assay. [Related pubchem assays (depositor defined):AID2013, AID2026]. It is filed as functional.
Assay [14] concerns the target T11, Cannabinoid receptor 2. Put plainly: SAR analysis of antagonists of the Cannabinoid Receptor 2 using an Image-Based Assay. [Related pubchem assays (depositor defined):AID2013, AID2026]. It is filed as functional.
Assay [15] has as its target T9, Cannabinoid receptor 1. Put plainly: SAR analysis of antagonists of the Cannabinoid Receptor 1 using an Image-Based Assay - Set 2. [Related pubchem assays (depositor defined):AID2013, AID2026]. It counts as functional.

Calls of active or inactive are those of the source.

T7 sequence (P98170 whole entry): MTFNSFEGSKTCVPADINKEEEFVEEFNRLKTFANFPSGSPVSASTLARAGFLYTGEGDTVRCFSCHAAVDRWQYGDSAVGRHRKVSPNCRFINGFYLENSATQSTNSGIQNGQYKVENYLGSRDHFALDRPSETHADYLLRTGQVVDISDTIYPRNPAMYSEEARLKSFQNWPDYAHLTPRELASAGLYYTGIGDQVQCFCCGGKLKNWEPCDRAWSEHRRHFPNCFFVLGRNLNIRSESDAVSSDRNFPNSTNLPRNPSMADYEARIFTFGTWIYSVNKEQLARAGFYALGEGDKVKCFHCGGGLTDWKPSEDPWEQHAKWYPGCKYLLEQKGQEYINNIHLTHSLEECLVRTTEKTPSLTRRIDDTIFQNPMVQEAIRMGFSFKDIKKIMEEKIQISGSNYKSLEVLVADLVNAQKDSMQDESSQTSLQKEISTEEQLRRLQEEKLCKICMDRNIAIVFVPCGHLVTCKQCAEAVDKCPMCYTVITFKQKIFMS
T9 sequence (P21554 whole entry): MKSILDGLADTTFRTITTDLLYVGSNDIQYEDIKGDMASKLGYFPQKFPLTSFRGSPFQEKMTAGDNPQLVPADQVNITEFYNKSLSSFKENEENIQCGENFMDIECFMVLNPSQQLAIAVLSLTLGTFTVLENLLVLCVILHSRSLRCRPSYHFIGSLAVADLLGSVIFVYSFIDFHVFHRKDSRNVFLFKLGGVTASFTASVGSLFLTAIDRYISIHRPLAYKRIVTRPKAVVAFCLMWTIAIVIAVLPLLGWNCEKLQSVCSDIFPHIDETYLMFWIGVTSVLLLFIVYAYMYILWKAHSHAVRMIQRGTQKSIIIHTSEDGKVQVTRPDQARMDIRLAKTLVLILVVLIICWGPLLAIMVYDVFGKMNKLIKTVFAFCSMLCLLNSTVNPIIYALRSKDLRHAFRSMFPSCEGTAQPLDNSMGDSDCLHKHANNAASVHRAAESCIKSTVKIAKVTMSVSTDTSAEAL
T10 sequence (Q9HC97 whole entry): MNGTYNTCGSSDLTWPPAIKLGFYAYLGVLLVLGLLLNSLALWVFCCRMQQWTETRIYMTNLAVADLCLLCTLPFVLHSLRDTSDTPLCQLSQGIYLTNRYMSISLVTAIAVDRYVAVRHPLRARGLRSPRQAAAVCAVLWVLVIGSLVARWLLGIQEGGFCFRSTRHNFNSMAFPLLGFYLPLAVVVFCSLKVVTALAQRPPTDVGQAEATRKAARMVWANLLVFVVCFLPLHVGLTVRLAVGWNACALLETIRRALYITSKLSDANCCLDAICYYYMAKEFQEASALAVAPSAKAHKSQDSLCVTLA
T11 sequence (P34972 whole entry): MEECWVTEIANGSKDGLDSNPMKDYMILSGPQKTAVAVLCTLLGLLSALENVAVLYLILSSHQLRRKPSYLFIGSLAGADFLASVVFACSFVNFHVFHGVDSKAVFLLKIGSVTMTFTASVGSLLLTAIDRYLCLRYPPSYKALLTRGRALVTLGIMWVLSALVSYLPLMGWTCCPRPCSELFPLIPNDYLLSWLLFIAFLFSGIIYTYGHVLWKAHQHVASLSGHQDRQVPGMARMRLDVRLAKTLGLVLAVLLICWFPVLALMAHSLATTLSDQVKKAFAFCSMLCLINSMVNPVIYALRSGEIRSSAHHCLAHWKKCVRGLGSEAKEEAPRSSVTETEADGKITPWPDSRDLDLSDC
T8 sequence (Q9Y2T6 whole entry): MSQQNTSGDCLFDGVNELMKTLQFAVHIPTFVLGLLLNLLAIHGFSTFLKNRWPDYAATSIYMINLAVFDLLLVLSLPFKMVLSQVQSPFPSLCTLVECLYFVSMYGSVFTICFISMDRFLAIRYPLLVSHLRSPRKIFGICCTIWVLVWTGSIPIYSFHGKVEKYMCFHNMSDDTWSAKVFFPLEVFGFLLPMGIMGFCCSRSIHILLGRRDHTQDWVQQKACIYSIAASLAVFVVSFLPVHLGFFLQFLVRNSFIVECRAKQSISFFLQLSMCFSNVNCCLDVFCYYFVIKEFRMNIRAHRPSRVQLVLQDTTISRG
Sequence of Nonstructural protein 1 (Q194T2 whole entry): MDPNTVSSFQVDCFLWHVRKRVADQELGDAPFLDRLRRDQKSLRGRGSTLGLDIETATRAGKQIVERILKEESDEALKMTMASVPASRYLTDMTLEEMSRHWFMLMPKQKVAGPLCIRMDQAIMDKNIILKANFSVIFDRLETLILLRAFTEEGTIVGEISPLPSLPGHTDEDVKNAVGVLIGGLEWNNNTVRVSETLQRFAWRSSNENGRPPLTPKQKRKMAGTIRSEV

In the case of `Oc1ccc(/C=N/NC(=S)Nc2cccnc2)c(O)c1`, the IC50 at Nonstructural protein 1 is 1.82 µM (active); in [1], 40.5 µM (active); on Hexokinase HKDC1, > 80 µM (inactive). In addition, at Hexokinase-1, the EC50 is > 80 µM (inactive).

Consider `CCCCC1(CC)C(=O)NC(=O)N=C1Nc1ccc(OC)cc1` (centres undefined), for which the IC50 on Coagulation factor XII [2] is > 50 µM (inactive).

Regarding `CC1(C)Cc2c(sc(NC(=O)C(=O)NCC3CCCO3)c2C(N)=O)CO1` (centres undefined), the IC50 is 2.18 µM (active) in assay [3], > 20 µM (inactive) at Bcl-2-related protein A1 and 4.28 µM (active) in assay [4].

`CCOCCCNC(=O)c1cn(CC(C)C)c(=O)c2cc(OC)c(OC)cc12`: the results for the IC50 in assay [5] and in [6] were > 100 µM (inactive) and > 100 µM (not active), respectively.

As to `Cc1ccc(C(=O)n2nnc3ccccc32)cc1`, the IC50 at Coagulation factor XII [7] was 2.29 µM (active).

Take `CC1=CC(C)(C)N2C(=O)C3(SCC(=O)N3c3ccc(O)cc3)c3cc(C)cc1c32` (centres undefined): the half-maximal inhibitory concentration (IC50) is 4.1 µM (active) in [8]; 2.72 µM (active) in assay [11]; > 32 µM (inactive) in assay [12]; > 32 µM (inactive) on Cannabinoid receptor 2 [14]; > 32 µM (inactive) at Cannabinoid receptor 1 [15]. Moreover, the EC50 (at Cannabinoid receptor 1 [9]; in assay [10]; at Cannabinoid receptor 2 [13]) was > 32 µM (inactive) each time.
